Target: T1, AXL (fusion protein of amino acids 464-885 of the intracellular domain of human AXL with glutathione transferase) (Homo sapiens, UniProt P30530)
T1 sequence (P30530 464-885 isoform P30530-2): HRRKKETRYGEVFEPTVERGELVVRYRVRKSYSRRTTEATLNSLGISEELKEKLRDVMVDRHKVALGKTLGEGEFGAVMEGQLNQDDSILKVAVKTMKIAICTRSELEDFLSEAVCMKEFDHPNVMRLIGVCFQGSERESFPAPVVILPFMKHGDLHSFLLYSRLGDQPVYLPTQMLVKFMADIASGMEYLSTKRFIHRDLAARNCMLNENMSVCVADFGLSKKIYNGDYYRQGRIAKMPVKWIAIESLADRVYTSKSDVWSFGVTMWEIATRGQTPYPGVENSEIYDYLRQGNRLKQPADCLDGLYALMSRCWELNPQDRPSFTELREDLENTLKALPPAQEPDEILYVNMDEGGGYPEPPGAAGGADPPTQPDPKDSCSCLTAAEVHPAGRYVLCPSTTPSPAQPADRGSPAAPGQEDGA
Assay: Cell-Free Axl Kinase Inhibitory Activity

IC50 [nM] | Structure (SMILES)
1 to 10 | Nc1ncc(-c2cnn(C[C@H]3COCCO3)c2)cc1-c1ccc(NC(=O)c2cn(CCF)cc(-c3ccc(F)cc3)c2=O)cc1 [Example 65, N-[4-(2-Amino-5-{1-[(2S)-1,4-dioxan-2-ylmethyl]-1H-pyrazol-4-yl}pyridin-3-yl)phenyl]-1-(2-fluoroethyl)-5-(4-fluorophenyl)-4-oxo-1,4-dihydropyridine-3-carboxamide]
1 to 10 | CCN(CC)C(=O)c1cn(Cc2ccc(F)cc2)cc(C(=O)Nc2ccc(-c3cc(-c4cnn(C[C@H]5COCCO5)c4)cnc3N)cc2)c1=O [Example 70, N′-[4-(2-Amino-5-{1-[(2S)-1,4-dioxan-2-ylmethyl]-1H-pyrazol-4-yl}pyridin-3-yl)phenyl]-N,N-diethyl-1-(4-fluorobenzyl)-4-oxo-1,4-dihydropyridine-3,5-dicarboxamide]
0.1 to 1 | Cc1nnc(-c2cn(Cc3ccc(F)cc3)cc(C(=O)Nc3ccc(-c4cc(-c5cnn(C[C@H]6COCCO6)c5)cnc4N)cc3)c2=O)o1 [Example 74, N-[4-(2-Amino-5-{1-[(2S)-1,4-dioxan-2-ylmethyl]-1H-pyrazol-4-yl}pyridin-3-yl)phenyl]-1-(4-fluorobenzyl)-5-(5-methyl-1,3,4-oxadiazol-2-yl)-4-oxo-1,4-dihydropyridine-3-carboxamide]
1 to 10 | Nc1ncc(-c2cnn(C[C@H]3COCCO3)c2)cc1-c1ccc(NC(=O)c2cn(CCF)cc(-c3ccccc3)c2=O)cc1F [Example 75, N-[4-(2-Amino-5-{1-[(2S)-1,4-dioxan-2-ylmethyl]-1H-pyrazol-4-yl}pyridin-3-yl)-3-fluorophenyl]-1-(2-fluoroethyl)-4-oxo-5-phenyl-1,4-dihydropyridine-3-carboxamide]
0.1 to 1 | Nc1ncc(-c2cnn(C[C@H]3COCCO3)c2)cc1-c1ccc(NC(=O)c2cn(Cc3ccc(F)cc3)cc(C(=O)N3CCCC3)c2=O)cc1F [Example 76, N-[4-(2-Amino-5-{1-[(2S)-1,4-dioxan-2-ylmethyl]-1H-pyrazol-4-yl}pyridin-3-yl)-3-fluorophenyl]-1-(4-fluorobenzyl)-4-oxo-5-(pyrrolidin-1-ylcarbonyl)-1,4-dihydropyridine-3-carboxamide]

Continued, molecule first:

Structure (SMILES) | IC50 [nM]
COCCn1cc(C(=O)Nc2ccc(-c3cc(-c4cnn(C[C@H]5COCCO5)c4)cnc3N)cc2)c(=O)c(-c2ccc(F)cc2)c1 [Example 66, N-[4-(2-Amino-5-{1-[(2S)-1,4-dioxan-2-ylmethyl]-1H-pyrazol-4-yl}pyridin-3-yl)phenyl]-5-(4-fluorophenyl)-1-(2-methoxyethyl)-4-oxo-1,4-dihydropyridine-3-carboxamide] | 1 to 10
CCOCCn1cc(C(=O)Nc2ccc(-c3cc(-c4cnn(C[C@H]5COCCO5)c4)cnc3N)cc2)c(=O)c(-c2ccc(F)cc2)c1 [Example 67, N-[4-(2-Amino-5-{1-[(2S)-1,4-dioxan-2-ylmethyl]-1H-pyrazol-4-yl}pyridin-3-yl)phenyl]-1-(2-ethoxyethyl)-5-(4-fluorophenyl)-4-oxo-1,4-dihydropyridine-3-carboxamide] | 1 to 10
Nc1ncc(-c2cnn(C[C@H]3COCCO3)c2)cc1-c1ccc(NC(=O)c2cn(Cc3ccc(F)cc3)cc(C(=O)N3CCCC3)c2=O)cc1 [Example 71, N-[4-(2-Amino-5-{1-[(2S)-1,4-dioxan-2-ylmethyl]-1H-pyrazol-4-yl}pyridin-3-yl)phenyl]-1-(4-fluorobenzyl)-4-oxo-5-(pyrrolidin-1-ylcarbonyl)-1,4-dihydropyridine-3-carboxamide] | 0.1 to 1
Nc1ncc(-c2cnn(C[C@H]3COCCO3)c2)cc1-c1ccc(NC(=O)c2cn(Cc3ccc(F)cc3)cc(C(=O)N3CCC(F)(F)C3)c2=O)cc1 [Example 73, N-[4-(2-Amino-5-{1-[(2S)-1,4-dioxan-2-ylmethyl]-1H-pyrazol-4-yl}pyridin-3-yl)phenyl]-5-[(3,3-difluoropyrrolidin-1-yl)carbonyl]-1-(4-fluorobenzyl)-4-oxo-1,4-dihydropyridine-3-carboxamide] | 10 to 20

Source: patent US8933103B2, “Pyridone derivatives” (Daiichi Sankyo Company, Limited, priority 2012, dated 2015)
